These results are taken from patent US12128129B2, “Lactobacillus plantarum for skin care” (SYMRISE AG, priority 2019, dated 2024).

The subject of assay [1] is ex vivo human skin models. As to the kind of experiment: IL-8 release of ex vivo human skin models after diesel particulate 1650b. It counts as cell-based. Conditions: topical cosmetic formulation containing L. plantarum HEAL 19, stimulation with diesel particulate (1650b). Here is the method: Ex Vivo Studies Ex vivo trials were done by Cutech Srl, Italy. Effects of described Lactobacillus strains on various parameters were analyzed in ex vivo skin models. Human skin from abdominal plastic surgery was used. Applications of heat inactivated bacteria suspensions were done systemically or topically, in formulation or solved in cell culture medium Tape stripping may be used. Concentrations and incubation times may vary. All data were processed in terms of mean, standard deviation and standard error of mean (SEM) for each treatment. Anti-Inflammatory Effects Above described ex vivo human skin models have been used to verify the anti-inflammatory potential of the L. plantarum strains. The models were treatment with a L. plantarum HEAL 19 cosmetic emulsion followed by the application of the external noxious agent and pollutant 1650b, simulating air pollution. At a selected endpoint, the organ cell culture medium has been withdrawn from wells and analyzed for IL-8 using Deluxe set Human IL-8 of Biolegend®, Inc.

The next assay has as its system HaCaT keratinocytes. As to the kind of experiment: IL-8 release after IL-1alpha stimulation of pre-treated keratinocytes (ELISA). It counts as cell-based, human. Conditions: 0.25 mg/mL, 48 h pre-treatment, then 30 ng/mL IL-1alpha for 8 h. Here is the method:
Anti-Inflammatory Effects of Lactobacillus plantarum HEAL 19 and HEAL 99 HaCaT keratinocytes were cultivated in 96-well plates using RPMI-A, medium sterile filtered with L-Glutamine, Capricorn, supplemented with 10% fetal calf serum (FCS), Capricorn. The plates were incubated at 37° C. and 5% CO2. After 24 hours starvation with cell culture medium (RPMI, 1% FCS) the cells were washed once. The anti-inflammatory substances/inactivated bacteria suspensions were suspended in starvation medium, applied and incubated for 24/48 h with parameters described above. […] To remove bacterial cells after pre-incubation all wells were washed with cell culture medium three times. IL-1alpha, Gibco, life technologies was dissolved in H2Odest, diluted in starvation medium and pipetted to wells, preferably at a concentration of 30 ng/mL. Alternatively, a heat inactivated Staphylococcus aureus (DSM799) suspension was used as pro-inflammatory agent in a concentration of 0.1 mg/mL-1 mg/mL dry mass. After 8 h incubation the supernatants were separated. All samples were stored at −80° C. until further analyses. IL-8 concentrations were measured with Human CXCL8/IL-8, DuoSet ELISA, Development Systems, R&D Systems. The experimental procedure was performed as described in the provided protocol. After calculating means of the duplicate/triplicate values and subtraction of the average zero standard optical density the calculation was done using four parameter logistic curve-fit for creating standard curves.

In a further assay the test system is ex vivo skin models. The assay can be described thus: Skin barrier integrity (Rhodamine B) ex vivo after diesel particulate 1650b. Conditions: L. plantarum HEAL 19 formulation vs placebo, stimulation with diesel particulate (1650b). Format: cell-based, human. As for the experimental part:
Ex vivo trials were done by Cutech Srl, Italy. Effects of described Lactobacillus strains on various parameters were analyzed in ex vivo skin models. Human skin from abdominal plastic surgery was used. Applications of heat inactivated bacteria suspensions were done systemically or topically, in formulation or solved in cell culture medium Tape stripping may be used. Concentrations and incubation times may vary. Skin Barrier Integrity (Rhodamine B) Ex vivo skin models have been treated topically with the L. plantarum strains before the application of the diesel particulate (i.e. 1650b). All skin samples have been incubated at 35° C., 5% CO2 and environmental humidity. At the end of the experimental phase the skin samples have been harvested stained with Rhodaminde B, cryo-fixed and cut at the cryostat for consequent image acquisition and analysis. The analysis of Rhodamine B fluorescence has been performed within two sections of the epidermis area for each skin model. Images have been analyzed by evaluating the fluorescence through Image-J application (NIH, USA).

Assay [2] has as its system 3D epidermis model system for dry skin. The assay can be described thus: Barrier improving efficacy on SDS damaged 3D skin models for dry skin (TEM of intercellular lipid lamellae). It counts as cell-based. Conditions: 0.5% in a skin care formulation, topical, after SDS treatment. Here is the method: Barrier Improving Efficacy on SDS Damaged 3D Skin Models for Dry Skin
For this purpose an in vitro study was performed on a 3D epidermis model system for dry skin. […] Disturbance of the epidermal barrier was measured as loss of intercellular lipid lamellae. The skin repair performance was determined by transmission electron microscopy (TEM) after treatment with L. plantarum HEAL 19 formulated in a cosmetic emulsion or placebo emulsion and then further cultivated to observe reformation of intercellular lipid lamellae.

The test system of assay [3] is HEPKp 3 dimensional skin models. The assay can be described thus: Filaggrin release from HEPKp 3D skin models (ELISA). Format: cell-based, human. Conditions: 0.05%, after 8 days, vs medium control. An excerpt: Induction of Moisturizing Factor Filaggrin in 3D Skin Models Three dimensional skin models derived from human epidermal keratinocyte progenitors (HEPKp) and were systemically treated with test substances in CnT-PR-3D medium for 4 to 9 days. The filaggrin release was detected in the media by ELISA, Enzyme-linked Immunosorbent Assay Kit for filaggrin, Cloud-Clone Corp.

For assay [4] the test system is unchanged. As to the kind of experiment: Induction of hyaluronic acid in HEPKp 3D skin models (ELISA). It counts as cell-based, human. The following applies: 0.005% in cell culture medium, 8 days treatment. Here is the method:
Induction of Hyaluronic Acid Human epidermal keratinocyte progenitors (HEPKp) generated 3d human skin models were cultivated and systemically treated with test substances. Briefly, defined concentrations of test substances were added to cell culture medium and each skin model was treated in cell culture dishes for up to 9 days at 37° C. and 5% CO2. After the treatment, collected supernatants were stored at −80° C. until further analyses. Viability of the cells was controlled by MTT standard method. Hyaluronic acid concentrations were measured by TECOmedical hyaluronic acid plus ELISA. The experimental procedure was performed as described in the provided protocol.
(An ELISA detects its analyte on a solid surface through an enzyme-linked reagent.)

As for “Lactobacillus plantarum HEAL 19 (DSM 15313) [L. plantarum HEAL 19]”, in assay [1], the “IL-8 detection in cell culture medium reduced to, compared to placebo control” value is on record as 75%. In addition, the “IL-8 release reduced to, compared to not pre-treated IL-1alpha control” value with HaCaT keratinocytes worked out at 5.1%. Also, in the assay on ex vivo skin models, the “rhodamine B penetration (skin barrier integrity)” value is “reduction of rhodamine B penetration”. The “repair performance (length of intercellular lipid lamellae)” value in assay [2] is given as “increased repair performance”. In addition, the “filaggrin (FLG) release in medium” value in assay [3] was 215%. Moreover, the “hyaluronic acid release compared to the medium control” value in assay [4] was 145%.
